Assay results: patent publication US20210070748A1, “INHIBITORS OF BRUTONS TYROSINE KINASE” (Pharmacyclics LLC, priority 2015, published 2021)

Tests used:
Assay type in all cases: biochemical
EGFR = EGFR (Homo sapiens, UniProt P00533); assay: Inhibition of a panel of kinases, in vitro HotSpot kinase assay: EGFR; details: D-compounds panel data; 1 μM ATP
Protocol: (§1) The degree of inhibition of a panel of kinases is determined using the in vitro HotSpot kinase assay (purified enzymes, ^33P-ATP, an appropriate substrate and 1 μM ATP).

SRC = SRC (Homo sapiens, UniProt P12931); assay: Inhibition of a panel of kinases, in vitro HotSpot kinase assay: SRC; details: D-compounds panel data; 1 μM ATP
Sequence of SRC (P12931 whole entry): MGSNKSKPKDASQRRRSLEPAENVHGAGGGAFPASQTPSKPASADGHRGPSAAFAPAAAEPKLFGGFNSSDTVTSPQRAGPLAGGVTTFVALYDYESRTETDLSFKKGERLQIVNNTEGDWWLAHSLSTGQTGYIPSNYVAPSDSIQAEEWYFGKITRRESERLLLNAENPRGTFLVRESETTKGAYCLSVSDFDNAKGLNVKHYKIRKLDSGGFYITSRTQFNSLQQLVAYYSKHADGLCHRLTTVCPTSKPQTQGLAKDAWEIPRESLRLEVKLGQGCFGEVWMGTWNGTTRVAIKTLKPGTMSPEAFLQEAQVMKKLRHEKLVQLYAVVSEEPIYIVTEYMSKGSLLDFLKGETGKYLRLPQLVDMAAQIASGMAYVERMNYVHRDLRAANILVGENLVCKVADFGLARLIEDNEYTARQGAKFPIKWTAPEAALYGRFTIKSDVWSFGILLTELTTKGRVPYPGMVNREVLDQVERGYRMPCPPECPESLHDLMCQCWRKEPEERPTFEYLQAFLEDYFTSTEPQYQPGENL
Protocol: as §1

BTK-WT = target: T1, BTK-WT (Homo sapiens, UniProt Q06187); assay: Btk in vitro inhibitory activity (one of Method A TR-FRET, Method B electrophoretic mobility shift, Method C radiometric filter binding); details: D-compounds panel data; read-out: IC50 BTK-WT
T1 construct: purified from insect cells as a full-length construct containing an N-terminal 6X-His tag; His6 (N); made in house; host or cells: insect cells (baculovirus Sf21 in Method B)
T1 sequence (Q06187 whole entry): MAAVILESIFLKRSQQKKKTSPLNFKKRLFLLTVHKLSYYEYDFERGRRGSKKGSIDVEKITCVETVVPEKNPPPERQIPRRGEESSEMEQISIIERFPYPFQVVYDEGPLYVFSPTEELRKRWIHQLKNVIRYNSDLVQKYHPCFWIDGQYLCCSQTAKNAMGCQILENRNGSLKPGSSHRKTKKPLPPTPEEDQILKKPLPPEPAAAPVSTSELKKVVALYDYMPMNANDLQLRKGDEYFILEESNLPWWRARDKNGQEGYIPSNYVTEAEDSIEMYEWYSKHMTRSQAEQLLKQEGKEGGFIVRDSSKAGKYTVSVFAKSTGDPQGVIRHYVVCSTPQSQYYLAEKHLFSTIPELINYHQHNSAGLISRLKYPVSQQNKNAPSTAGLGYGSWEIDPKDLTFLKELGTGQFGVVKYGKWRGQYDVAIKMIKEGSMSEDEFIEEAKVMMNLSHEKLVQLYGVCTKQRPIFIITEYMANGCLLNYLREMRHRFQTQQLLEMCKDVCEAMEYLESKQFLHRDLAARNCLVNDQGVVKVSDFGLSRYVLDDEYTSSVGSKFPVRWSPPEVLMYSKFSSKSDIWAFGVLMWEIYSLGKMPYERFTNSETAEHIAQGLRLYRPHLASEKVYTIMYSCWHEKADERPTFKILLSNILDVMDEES

ITK = target: T2, ITK (Homo sapiens, UniProt Q08881); assay: Inhibition of a panel of kinases, in vitro HotSpot kinase assay: ITK; details: D-compounds panel data; 1 μM ATP
T2 sequence (Q08881 1-620): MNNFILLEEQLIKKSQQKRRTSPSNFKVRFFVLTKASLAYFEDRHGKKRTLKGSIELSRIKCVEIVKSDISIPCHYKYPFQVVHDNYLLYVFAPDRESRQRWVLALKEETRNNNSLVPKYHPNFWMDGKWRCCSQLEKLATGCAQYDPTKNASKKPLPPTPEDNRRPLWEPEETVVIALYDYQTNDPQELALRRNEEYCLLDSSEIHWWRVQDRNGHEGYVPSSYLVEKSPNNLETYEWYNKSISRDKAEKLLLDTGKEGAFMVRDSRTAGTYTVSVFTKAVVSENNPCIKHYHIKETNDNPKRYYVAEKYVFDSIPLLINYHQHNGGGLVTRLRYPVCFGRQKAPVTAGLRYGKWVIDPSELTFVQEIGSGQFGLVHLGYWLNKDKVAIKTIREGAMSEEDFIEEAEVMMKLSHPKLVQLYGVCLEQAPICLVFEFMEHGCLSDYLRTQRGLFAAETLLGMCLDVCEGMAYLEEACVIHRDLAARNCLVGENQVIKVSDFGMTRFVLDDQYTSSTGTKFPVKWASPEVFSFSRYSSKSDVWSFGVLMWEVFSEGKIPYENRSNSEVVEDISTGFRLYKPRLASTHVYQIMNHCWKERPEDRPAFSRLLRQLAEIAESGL
Protocol: as §1

LCK = LCK (Homo sapiens, UniProt P06239); assay: Inhibition of a panel of kinases, in vitro HotSpot kinase assay: LCK; details: D-compounds panel data; 1 μM ATP; read-out: IC50 LCK
Sequence of LCK (P06239 whole entry): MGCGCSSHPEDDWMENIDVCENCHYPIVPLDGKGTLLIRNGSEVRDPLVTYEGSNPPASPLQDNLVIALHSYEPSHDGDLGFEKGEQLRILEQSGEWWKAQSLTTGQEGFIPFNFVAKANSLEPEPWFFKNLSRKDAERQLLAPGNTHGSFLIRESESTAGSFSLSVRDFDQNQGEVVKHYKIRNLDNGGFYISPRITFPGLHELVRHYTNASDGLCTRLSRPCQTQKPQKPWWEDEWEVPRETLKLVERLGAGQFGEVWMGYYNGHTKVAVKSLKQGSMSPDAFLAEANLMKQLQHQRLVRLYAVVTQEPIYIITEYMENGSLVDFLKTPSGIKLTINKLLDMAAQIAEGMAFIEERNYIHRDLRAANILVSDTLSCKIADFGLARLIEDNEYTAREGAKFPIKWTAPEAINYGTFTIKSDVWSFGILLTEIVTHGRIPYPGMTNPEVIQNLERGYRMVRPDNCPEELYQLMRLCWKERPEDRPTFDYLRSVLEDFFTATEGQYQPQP

Sequence of EGFR (P00533 25-1210): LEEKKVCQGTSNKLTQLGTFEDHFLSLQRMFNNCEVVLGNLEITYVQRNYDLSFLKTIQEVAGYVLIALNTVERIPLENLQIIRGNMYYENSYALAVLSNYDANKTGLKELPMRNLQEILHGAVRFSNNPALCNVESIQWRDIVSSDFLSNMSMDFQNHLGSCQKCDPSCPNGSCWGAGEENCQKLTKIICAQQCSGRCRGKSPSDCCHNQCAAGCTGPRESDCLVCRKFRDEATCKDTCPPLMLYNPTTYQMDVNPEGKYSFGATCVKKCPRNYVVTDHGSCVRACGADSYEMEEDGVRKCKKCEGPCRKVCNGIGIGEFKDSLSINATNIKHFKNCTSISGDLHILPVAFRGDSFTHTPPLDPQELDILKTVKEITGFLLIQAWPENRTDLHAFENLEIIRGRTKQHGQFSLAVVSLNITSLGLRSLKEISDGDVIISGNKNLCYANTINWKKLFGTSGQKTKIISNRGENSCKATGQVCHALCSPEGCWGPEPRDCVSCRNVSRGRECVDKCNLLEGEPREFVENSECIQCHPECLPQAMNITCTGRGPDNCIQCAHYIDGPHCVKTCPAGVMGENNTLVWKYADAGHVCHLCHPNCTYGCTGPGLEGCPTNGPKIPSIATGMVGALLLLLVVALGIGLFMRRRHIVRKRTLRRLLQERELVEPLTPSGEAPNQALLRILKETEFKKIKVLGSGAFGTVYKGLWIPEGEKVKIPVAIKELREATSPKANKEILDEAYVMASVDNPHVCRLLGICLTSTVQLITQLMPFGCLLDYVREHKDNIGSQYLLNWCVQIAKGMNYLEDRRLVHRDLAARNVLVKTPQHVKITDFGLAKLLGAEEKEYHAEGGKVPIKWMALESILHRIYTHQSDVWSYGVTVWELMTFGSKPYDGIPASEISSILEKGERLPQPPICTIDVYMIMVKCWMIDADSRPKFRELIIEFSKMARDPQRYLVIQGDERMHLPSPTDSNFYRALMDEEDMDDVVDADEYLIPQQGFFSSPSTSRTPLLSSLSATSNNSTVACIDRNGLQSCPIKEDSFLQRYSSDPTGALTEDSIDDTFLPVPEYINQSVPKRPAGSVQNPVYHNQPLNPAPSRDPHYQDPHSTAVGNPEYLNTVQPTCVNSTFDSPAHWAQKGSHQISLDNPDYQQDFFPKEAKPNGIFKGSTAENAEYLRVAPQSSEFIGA

Compound | IC50 (EGFR) | IC50 (SRC) | IC50 (BTK-WT) | IC50 (ITK) | IC50 (LCK)
C[C@@H]1[C@H](NC(=O)c2ccc(C3CC3)cc2)CCCN1c1cnc(C(N)=O)c(Nc2ccc(OC3CCCN(C)C3)cc2)n1 (stereo partly drawn) [Example D-105, 5-[(2R,3R)-3-(4-cyclopropylbenzamido)-2-methylpiperidin-1-yl]-3-({4-[(1-methylpiperidin-3-yl)oxy]phenyl}amino)pyrazine-2-carboxamide] | 100 to 1000 nM | 10 to 100 nM | ≤ 10 nM | 10 to 100 nM | 10 to 100 nM
C[C@@H]1[C@H](NC(=O)c2ccc(C3CC3)cc2)CCCN1c1cnc(C(N)=O)c(Nc2ccc(OC3C[C@H]4CC[C@@H](C3)N4C)cc2)n1 (stereo partly drawn) [Example D-106, 5-[(2R,3R)-3-(4-cyclopropylbenzamido)-2-methylpiperidin-1-yl]-3-[(4-{[(1R,5S)-8-methyl-8-azabicyclo[3.2.1]octan-3-yl]oxy}phenyl)amino]pyrazine-2-carboxamide] | 100 to 1000 nM | 10 to 100 nM | ≤ 10 nM | 10 to 100 nM | 10 to 100 nM
CC(=O)NC(C)(C)c1ccc(C(=O)N[C@@H]2CCCN(c3cnc(C(N)=O)c(Nc4cnn(C)c4)n3)[C@@H]2C)cc1 [Example D-107, 5-[(2R,3R)-3-[4-(2-acetamidopropan-2-yl)benzamido]-2-methylpiperidin-1-yl]-3-[(1-methyl-1H-pyrazol-4-yl)amino]pyrazine-2-carboxamide] | 1000 to 10000 nM | 10 to 100 nM | ≤ 10 nM | 100 to 1000 nM | 100 to 1000 nM
C[C@@H]1[C@H](NC(=O)c2ccc(C(C)(C)N(C)C)cc2)CCCN1c1cnc(C(N)=O)c(Nc2cnn(C)c2)n1 [Example D-108, 5-[(2R,3R)-3-{4-[2-(dimethylamino)propan-2-yl]benzamido}-2-methylpiperidin-1-yl]-3-[(1-methyl-1H-pyrazol-4-yl)amino]pyrazine-2-carboxamide] | 1000 to 10000 nM | 10 to 100 nM | ≤ 10 nM | 100 to 1000 nM | 100 to 1000 nM
CNC(=O)N[C@@H]1CCCN(c2cnc(C(N)=O)c(Nc3cnn(C)c3)n2)[C@@H]1C [Example D-109, 3-[(1-methyl-1H-pyrazol-4-yl)amino]-5-[(2R,3R)-2-methyl-3-[(methylcarbamoyl)amino]piperidin-1-yl]pyrazine-2-carboxamide] | 1000 to 10000 nM | 100 to 1000 nM | ≤ 10 nM | 100 to 1000 nM | 100 to 1000 nM
C[C@@H]1[C@H](NC(=O)N(C)C)CCCN1c1cnc(C(N)=O)c(Nc2ccc(C(=O)N3CCN(C)CC3)cc2)n1 [Example D-110, 5-[(2R,3R)-3-[(dimethylcarbamoyl)amino]-2-methylpiperidin-1-yl]-3-{[4-(4-methylpiperazine-1-carbonyl)phenyl]amino}pyrazine-2-carboxamide] | 1000 to 10000 nM | 100 to 1000 nM | ≤ 10 nM | 1000 to 10000 nM | 100 to 1000 nM
C[C@@H]1[C@H](NC(=O)N(C)C)CCCN1c1cnc(C(N)=O)c(Nc2ccc(N3CCN(C)CC3)cc2)n1 [Example D-111, 5-[(2R,3R)-3-[(dimethylcarbamoyl)amino]-2-methylpiperidin-1-yl]-3-{[4-(4-methylpiperazin-1-yl)phenyl]amino}pyrazine-2-carboxamide] | 100 to 1000 nM | 10 to 100 nM | ≤ 10 nM | 100 to 1000 nM | 100 to 1000 nM
C[C@@H]1[C@H](NC(=O)c2ccc(C3CC3)cc2)CCCN1c1cnc(C(N)=O)c(Nc2ccc(C3(C)CCN(C4CCCC4)CC3)cc2)n1 [Example D-112, 3-{[4-(1-cyclopentyl-4-methylpiperidin-4-yl)phenyl]amino}-5-[(2R,3R)-3-(4-cyclopropylbenzamido)-2-methylpiperidin-1-yl]pyrazine-2-carboxamide] | 100 to 1000 nM | ≤ 10 nM | ≤ 10 nM | 10 to 100 nM | < 10 nM
C[C@@H]1[C@H](NC(=O)c2ccc(C3CC3)cc2F)CCCN1c1cnc(C(N)=O)c(Nc2ccc(CN3CCN(C)CC3)cc2)n1 [Example D-113, 5-[(2R,3R)-3-(4-cyclopropyl-2-fluorobenzamido)-2-methylpiperidin-1-yl]-3-({4-[(4-methylpiperazin-1-yl)methyl]phenyl}amino)pyrazine-2-carboxamide] | 100 to 1000 nM | 100 to 1000 nM | ≤ 10 nM | 100 to 1000 nM | 10 to 100 nM
C[C@@H]1[C@H](NC(=O)c2ccc(C3CC3)cc2F)CCCN1c1cnc(C(N)=O)c(Nc2ccc3ncccc3c2)n1 [Example D-114, 5-[(2R,3R)-3-(4-cyclopropyl-2-fluorobenzamido)-2-methylpiperidin-1-yl]-3-[(quinolin-6-yl)amino]pyrazine-2-carboxamide] | > 10000 nM | 100 to 1000 nM | 10 to 100 nM | > 10000 nM | > 10000 nM
Cc1cc(Nc2cc(N3CCC[C@@H](NC(=O)c4ccc(C5CC5)cc4F)[C@H]3C)cnc2C(N)=O)sn1 [Example D-116, 5-[(2R,3R)-3-(4-cyclopropyl-2-fluorobenzamido)-2-methylpiperidin-1-yl]-3-[(3-methyl-1,2-thiazol-5-yl)amino]pyridine-2-carboxamide] | 1000 to 10000 nM | 100 to 1000 nM | ≤ 10 nM | 1000 to 10000 nM | 10 to 100 nM
C[C@@H]1[C@H](NC(=O)c2ccc(C3CC3)cc2F)CCCN1c1cnc(C(N)=O)c(Nc2cnn(C)c2)c1 [Example D-117, 5-[(2R,3R)-3-(4-cyclopropyl-2-fluorobenzamido)-2-methylpiperidin-1-yl]-3-[(1-methyl-1H-pyrazol-4-yl)amino]pyridine-2-carboxamide] | 1000 to 10000 nM | 100 to 1000 nM | 10 to 100 nM | 1000 to 10000 nM | 100 to 1000 nM
C[C@@H]1[C@H](NC(=O)N(C)C)CCCN1c1cnc(C(N)=O)c(Nc2cc(CN3CCOCC3)ns2)n1 [Example D-118, 5-[(2R,3R)-3-[(dimethylcarbamoyl)amino]-2-methylpiperidin-1-yl]-3-{[3-(morpholin-4-ylmethyl)-1,2-thiazol-5-yl]amino}pyrazine-2-carboxamide] | 1000 to 10000 nM | 100 to 1000 nM | ≤ 10 nM | 100 to 1000 nM | 100 to 1000 nM
Cc1nsc(Nc2nc(N3CCC[C@@H](NC(=O)N(C)C)[C@H]3C)cnc2C(N)=O)c1C [Example D-119, 3-[(dimethyl-1,2-thiazol-5-yl)amino]-5-[(2R,3R)-3-[(dimethylcarbamoyl)amino]-2-methylpiperidin-1-yl]pyrazine-2-carboxamide] | 100 to 1000 nM | 1000 to 10000 nM | 100 to 1000 nM | > 10000 nM | 1000 to 10000 nM
C[C@@H]1[C@H](NC(=O)N(C)C)CCCN1c1cnc(C(N)=O)c(Nc2ccc(CN3CCN(C)CC3)cc2)c1 [Example D-120, 5-[(2R,3R)-3-[(dimethylcarbamoyl)amino]-2-methylpiperidin-1-yl]-3-({4-[(4-methylpiperazin-1-yl)methyl]phenyl}amino)pyridine-2-carboxamide] | > 10000 nM | 1000 to 10000 nM | 100 to 1000 nM | 1000 to 10000 nM | 1000 to 10000 nM
C[C@@H]1[C@H](NC(=O)N(C)C)CCCN1c1cnc(C(N)=O)c(Nc2ccc3cccnc3c2)n1 [Example D-121, 5-[(2R,3R)-3-[(dimethylcarbamoyl)amino]-2-methylpiperidin-1-yl]-3-[(quinolin-7-yl)amino]pyrazine-2-carboxamide] | 1000 to 10000 nM | 100 to 1000 nM | 10 to 100 nM | 1000 to 10000 nM | 100 to 1000 nM
C[C@@H]1[C@H](NC(=O)c2ccc(C3CC3)cc2F)CCCN1c1cnc(C(N)=O)c(Nc2cc(CN(C)C)ns2)n1 [Example D-122, 5-[(2R,3R)-3-(4-cyclopropyl-2-fluorobenzamido)-2-methylpiperidin-1-yl]-3-({3-[(dimethylamino)methyl]-1,2-thiazol-5-yl}amino)pyrazine-2-carboxamide] | 1000 to 10000 nM | 10 to 100 nM | ≤ 10 nM | 100 to 1000 nM | 10 to 100 nM
CC(C)n1cc(Nc2nc(N3CCC[C@@H](NC(=O)c4ccc(C5CC5)cc4F)[C@H]3C)cnc2C(N)=O)cn1 [Example D-123, 5-[(2R,3R)-3-(4-cyclopropyl-2-fluorobenzamido)-2-methylpiperidin-1-yl]-3-{[1-(propan-2-yl)-1H-pyrazol-4-yl]amino}pyrazine-2-carboxamide] | 1000 to 10000 nM | 100 to 1000 nM | ≤ 10 nM | 100 to 1000 nM | 100 to 1000 nM
